{"source": "patent US8859001B2", "about": "“Fenoldopam formulations and pro-drug derivatives” (priority 2007, dated 2014)", "origin": "cited, not measured here", "key": {"mice": {"tested_on": "mice", "conditions": "mouse, in vivo, po"}, "[1]": {"conditions": "IV infusion"}, "patients": {"tested_on": "patients", "conditions": "clinical use"}, "[2]": {"tested_on": "human lymphoma and leukemia lines (Jurkat, HuT-78, K-562, Daudi, Raji)", "conditions": "for effectiveness in killing lymphoma and leukemia: selective dopamine D1/5 receptor agonists tested"}, "[3]": {"tested_on": "TCR-activated human normal peripheral T-cells"}, "[4]": {"tested_on": "resting (i.e., not TCR-activated) human normal peripheral T-cells", "conditions": "in vitro"}}, "note": "Structures can show the parent of a compound that is named as a salt. Where two headings read alike, the source gives them in different places."}
{"smiles": "CCOC(=O)C(C)O", "note": "(stereo not shown) [Ethyl lactate, 2-hydroxypropanoic acid ethyl ester]", "values": [{"measurement": "LD50", "setting": "mice", "value": "higher than 5 g/kg"}]}
{"smiles": "Oc1ccc(C2CNCCc3c2cc(O)c(O)c3Cl)cc1", "note": "(racemic) [Fenoldopam mesylate, 6-chloro-2,3,4,5-tetrahydro-1-(4-hydroxyphenyl)-1H-3-benzazepine-7,8-diol, methanesulfonate]", "values": [{"measurement": "solubility", "setting": "HCl/KCl buffer pH 1.5", "value": 9100, "unit": "µg/mL"}, {"measurement": "solubility", "setting": "buffer pH 6.8", "value": 130, "unit": "µg/mL"}, {"measurement": "solubility in ethanol", "setting": "ethanol", "value": "sparingly soluble"}, {"measurement": "solubility in methanol", "setting": "methanol", "value": "sparingly soluble"}, {"measurement": "solubility", "setting": "pH 7.5", "value": 60, "unit": "µg/mL"}, {"measurement": "solubility in propylene glycol", "setting": "propylene glycol", "value": "soluble"}, {"measurement": "solubility in water", "setting": "water", "value": "sparingly soluble"}, {"measurement": "half life T1/2", "setting": "[1]", "value": "~5", "unit": "min"}, {"measurement": "patients reporting the major side effects (headache, flushing and nausea)", "setting": "patients", "value": "≤ 10", "unit": "%"}, {"measurement": "time to start of measurable cell death after exposure", "setting": "[2]", "value": "1 to 60", "unit": "min"}, {"measurement": "death of cancer cells on in vitro exposure", "setting": "[2]; 1 mM-0.01 mM fenoldopam mesylate, five lymphoma/leukemia lines", "value": "death of all, or the vast majority of, these cancer cells"}, {"measurement": "death of cells (number of live and dead cells)", "setting": "[2]; cancer cells, after 72 hr, concentrations within 0.1 mM-0.1 nM", "value": "over 98%"}, {"measurement": "killing of TCR-activated T-cells", "setting": "[3]; in vitro", "value": "kills potently a substantial proportion"}, {"measurement": "death of cells (number of live and dead cells)", "setting": "[3]; normal TCR-activated T-cells, after 72 hr, concentrations within 0.1 mM-0.1 nM", "value": "over 98%"}, {"measurement": "effect on resting T-cells", "setting": "[4]", "value": "hardly affecting"}, {"measurement": "affinity", "setting": "α2-adrenoceptors", "value": "moderate affinity"}, {"measurement": "affinity", "setting": "D2-like receptors", "value": "no significant affinity"}, {"measurement": "affinity", "setting": "α1 adrenoceptors", "value": "no significant affinity"}, {"measurement": "affinity", "setting": "β adrenoceptors", "value": "no significant affinity"}, {"measurement": "affinity", "setting": "5HT1 receptors", "value": "no significant affinity"}, {"measurement": "affinity", "setting": "5HT2 receptors", "value": "no significant affinity"}, {"measurement": "affinity", "setting": "muscarinic receptors", "value": "no significant affinity"}]}
{"smiles": "Cl.NC[C@@H]1O[C@H](C23CC4CC(CC(C4)C2)C3)Cc2c1ccc(O)c2O", "note": "[A 77636 hydrochloride, (1R-cis)-1-(aminomethyl)-3,4-dihydro-3-tricyclo[3.3.1.13,7]dec-1-yl-[1H]-2-benzopyran-5,6-diol hydrochloride]", "values": [{"measurement": "relative effectiveness as cancer cell killer", "setting": "[2]; compared among dopamine receptor agonists", "value": "the most effective cancer killers"}, {"measurement": "effectiveness in killing lymphoma and leukemia", "setting": "[2]", "value": "effective in killing lymphoma and leukemia"}, {"measurement": "relative effectiveness as killer of TCR-activated T-cells", "setting": "[3]; compared among highly selective D1R agonists", "value": "the most effective killers of TCR-activated T-cells"}]}
{"smiles": "Br.Oc1cc2c(cc1O)C(c1ccccc1)CNCC2", "note": "(racemic) [SKF 38393 hydrobromide, (±)-1-phenyl-2,3,4,5-tetrahydro-(1H)-3-benzazepine-7,8-diol hydrobromide]", "values": [{"measurement": "effectiveness in killing lymphoma and leukemia", "setting": "[2]", "value": "effective in killing lymphoma and leukemia"}]}
{"smiles": "Cl.NC[C@@H]1O[C@H](c2ccccc2)Cc2c1ccc(O)c2O", "note": "(racemic) [A 68930 hydrochloride, cis-(±)-1-(aminomethyl)-3,4-dihydro-3-phenyl-1H-2-benzopyran-5,6-diol hydrochloride]", "values": [{"measurement": "effectiveness in killing lymphoma and leukemia", "setting": "[2]", "value": "effective in killing lymphoma and leukemia"}]}
